Patent US9346761B2, “Arginine methyltransferase inhibitors and uses thereof” (Epizyme, Inc., priority 2013, dated 2016)
pIC50: −log10 of the molar value.

molecular target: T1, Full-length human PRMT3 (Homo sapiens, UniProt O60678); experiment: PRMT3 biochemical assay (3H-SAM Flashplate, peptide substrate)
T1 construct: GST-tagged PRMT3; made in house; host or cells: E. coli BL21(DE3) Gold (pGEX-KG)
Procedure, shortened: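 Methylation of a biotinylated peptide (330 nM) by 0.5 nM GST-PRMT3 using 3H-SAM 100 nM with unlabelled SAM 1.8 uM, 20 mM Bicine pH 7.6, 2% DMSO, after 30 min enzyme–compound preincubation. Scintillation counts on streptavidin Flashplates normalised to 1 mM SAH and DMSO controls; curve fits with floating or fixed Hill slope.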

T1 sequence (O60678 with tags, fused parts or gaps): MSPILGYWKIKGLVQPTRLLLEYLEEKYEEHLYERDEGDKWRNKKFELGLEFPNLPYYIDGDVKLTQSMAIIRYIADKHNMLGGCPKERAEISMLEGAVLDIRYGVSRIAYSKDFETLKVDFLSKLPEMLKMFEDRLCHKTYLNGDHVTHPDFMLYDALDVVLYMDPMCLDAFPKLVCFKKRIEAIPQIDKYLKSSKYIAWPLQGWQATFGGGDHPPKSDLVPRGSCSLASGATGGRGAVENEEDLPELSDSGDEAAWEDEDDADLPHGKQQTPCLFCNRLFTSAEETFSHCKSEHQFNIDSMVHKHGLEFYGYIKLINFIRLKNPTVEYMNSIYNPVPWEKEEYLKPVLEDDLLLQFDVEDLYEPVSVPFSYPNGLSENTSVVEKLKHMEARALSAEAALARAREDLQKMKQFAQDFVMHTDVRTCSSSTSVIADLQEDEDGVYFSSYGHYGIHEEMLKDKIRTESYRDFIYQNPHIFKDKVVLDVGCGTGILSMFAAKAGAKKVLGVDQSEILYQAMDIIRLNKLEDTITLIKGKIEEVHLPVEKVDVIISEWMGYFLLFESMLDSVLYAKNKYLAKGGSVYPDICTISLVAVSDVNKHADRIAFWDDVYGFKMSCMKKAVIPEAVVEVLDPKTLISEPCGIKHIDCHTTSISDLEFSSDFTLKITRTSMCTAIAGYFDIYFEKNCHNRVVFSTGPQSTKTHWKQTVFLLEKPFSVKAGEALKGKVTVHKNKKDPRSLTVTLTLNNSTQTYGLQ

SMILES | pIC50
CNCCN(C)Cc1cn(C2CC2)nc1-c1ccc(F)cc1 [Compound 13] | < 5.00
CNCCN(C)Cc1cnn(C2CC2)c1-c1ccc(F)cc1 [Compound 14] | < 5.00
CNCCN(C)Cc1cn(C(C)C)nc1-c1ccc(F)cc1 [Compound 15] | < 5.00
CNCCN(C)Cc1cnn(C(C)C)c1-c1ccc(F)cc1 [Compound 16] | < 5.00
CNCCN(C)Cc1cn[nH]c1-c1ccc(C#N)cc1 [Compound 17] | 5.52 to 6.00
CNCCN(C)Cc1cn[nH]c1-c1cc(F)cc(F)c1 [Compound 18] | 5.00 to 5.52
CCCc1ccc(-c2n[nH]cc2CN(C)CCNC)cc1 [Compound 20] | 5.00 to 5.52
CNCCN(C)Cc1c[nH]nc1-c1cccc([N+](=O)[O-])c1 [Compound 21] | 5.52 to 6.00
CNCCN(C)Cc1c[nH]nc1-c1cccc(C#N)c1 [Compound 22] | < 5.00
CNCCN(C)Cc1c[nH]nc1-c1ccccc1OC [Compound 23] | < 5.00
CNCCN(C)Cc1c[nH]nc1-c1cccc(OC)c1 [Compound 24] | < 5.00
CNCCN(C)Cc1c[nH]nc1-c1ccc(OC)cc1 [Compound 25] | < 5.00
CNCCN(C)Cc1c[nH]nc1-c1cccc(O)c1 [Compound 26] | < 5.00
CNCCN(C)Cc1c[nH]nc1-c1ccc(O)cc1 [Compound 27] | < 5.00
CNCCN(C)Cc1c[nH]nc1-c1ccc(CO)cc1 [Compound 28] | 6.00 to 7.00
CNCCN(C)Cc1c[nH]nc1-c1ccc(C)cc1C [Compound 29] | < 5.00
CNCCN(C)Cc1cn(CCCC(O)CO)nc1-c1ccc(F)cc1 (centres unmarked) [Compound 30] | < 5.00
CNCCN(C)Cc1cnn(CCCC(O)CO)c1-c1ccc(F)cc1 (centres unmarked) [Compound 31] | < 5.00
CNCCN(C)Cc1c[nH]nc1-c1ccc(N)cc1 [Compound 33] | 5.52 to 6.00
CNCCN(C)Cc1c[nH]nc1-c1ccc(Oc2ccccc2)cc1 [Compound 37] | 6.00 to 7.00
CNCCN(C)Cc1c[nH]nc1-c1ccccc1C(F)(F)F [Compound 38] | < 5.00
CNCCN(C)Cc1c[nH]nc1-c1ccccc1OC(F)(F)F [Compound 40] | < 5.00
CCNC(=O)c1cccc(-c2n[nH]cc2CN(C)CCNC)c1 [Compound 43] | < 5.00
